Assay results published in the supplement of paper PMC10307832.

compound: O=C(Nc1cc(C(F)(F)F)cc(C(F)(F)F)c1)c1cc(Cl)ccc1O [IMD-0354] + NC(=O)Nc1cc(-c2cccc(F)c2)sc1C(=O)N[C@H]1CCCNC1 [AZD7762] (partner 0.2 µM); experiment: relative viability (nuclei count vs DMSO), 5 days (fraction); higher = more cells survive; details: first compound 4 µM
Method in brief: (§1)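 Medians of duplicate plates are given as relative viability. That measure is the nuclei count in treated wells divided by the count in vehicle wells. Counts were taken on 4× images of lung cancer cell lines in 1536-well plates, 5 days after pin-tool dosing the day after seeding with one drug alone or a fixed anchor-drug dose plus five library-drug doses (not always all listed) in √10 steps.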

Cell Line | relative viability
SW 900 | 0.254
NCI-H1648 | 0.297
CAL-12T | 0.32

compound: O=C(Nc1cc(C(F)(F)F)cc(C(F)(F)F)c1)c1cc(Cl)ccc1O [IMD-0354] + Nc1ncn([C@H]2C[C@H](O)[C@@H](CO)O2)c(=O)n1 [Decitabine] (partner 2 µM); experiment: as above; details: first compound 0.04 µM
Method in brief: as §1

Cell Line | relative viability
NCI-H522 | 0.748
NCI-H727 | 0.827
NCI-H1650 | 0.378
NCI-H1993 | 0.682
SK-LU-1 | 0.775
NCI-H838 | 0.482
LCLC-103H | 0.727
NCI-H520 | 0.512
NCI-H2126 | 0.526
EMC-BAC-2 | 0.955
NCI-H2085 | 0.59
HCC-366 | 0.423
NCI-H1666 | 0.718
NCI-H596 | 1.02
NCI-H1395 | 0.74
NCI-H2087 | 0.258

Cell Line | relative viability
NCI-H2342 | 0.728
LK-2 | 0.292
H3255 | 0.52
COR-L23 | 0.402
COR-L 105 | 0.674
LOU-NH91 | 0.834
ChaGo-K-1 | 0.509
A549 | 0.269
SW 900 | 0.432
NCI-H1648 | 0.526
NCI-H2009 | 0.374
NCI-H661 | 0.567
SW 1573 | 0.814
NCI-H2023 | 0.262
SK-MES-1 | 0.387

same assay, conditions: first compound 0.1265 µM

Cell Line | relative viability
NCI-H522 | 0.659
NCI-H727 | 0.864
NCI-H1650 | 0.455
NCI-H1993 | 0.658
SK-LU-1 | 0.657
NCI-H838 | 0.443
LCLC-103H | 0.737
NCI-H520 | 0.462
NCI-H2126 | 0.59
EMC-BAC-2 | 0.994
NCI-H2085 | 0.516
HCC-366 | 0.395
NCI-H1666 | 0.751
NCI-H596 | 0.998
NCI-H1395 | 0.645
NCI-H2087 | 0.276

Cell Line | relative viability
NCI-H2342 | 0.707
LK-2 | 0.315
H3255 | 0.595
COR-L23 | 0.443
COR-L 105 | 0.685
LOU-NH91 | 0.722
ChaGo-K-1 | 0.508
A549 | 0.229
SW 900 | 0.414
NCI-H1648 | 0.475
NCI-H2009 | 0.408
NCI-H661 | 0.534
SW 1573 | 0.588
NCI-H2023 | 0.222
SK-MES-1 | 0.386

same assay, conditions: first compound 0.4 µM

Cell Line | relative viability
NCI-H522 | 0.615
NCI-H727 | 0.788
NCI-H1650 | 0.285
NCI-H1993 | 0.516
SK-LU-1 | 0.441
NCI-H838 | 0.345
LCLC-103H | 0.635
NCI-H520 | 0.435
NCI-H2126 | 0.641
EMC-BAC-2 | 0.696
NCI-H2085 | 0.551
HCC-366 | 0.248
NCI-H1666 | 0.716
NCI-H596 | 0.825
NCI-H1395 | 0.713
NCI-H2087 | 0.188
NCI-H2342 | 0.601
H3255 | 0.504
COR-L23 | 0.339
COR-L 105 | 0.576
LOU-NH91 | 0.448
ChaGo-K-1 | 0.435
A549 | 0.249
SW 900 | 0.397
NCI-H1648 | 0.401
NCI-H2009 | 0.288
NCI-H661 | 0.389
SW 1573 | 0.245
NCI-H2023 | 0.167
SK-MES-1 | 0.306

same assay, conditions: first compound 1.265 µM

Cell Line | relative viability
NCI-H522 | 0.57
NCI-H727 | 0.502
NCI-H1650 | 0.203
NCI-H1993 | 0.458
SK-LU-1 | 0.264
NCI-H838 | 0.243
LCLC-103H | 0.546
NCI-H520 | 0.158
NCI-H2126 | 0.594
NCI-H2085 | 0.421
HCC-366 | 0.0815
NCI-H1666 | 0.531
NCI-H596 | 0.849
NCI-H1395 | 0.358
NCI-H2087 | 0.111
NCI-H2342 | 0.656
LK-2 | 0.141
H3255 | 0.529
COR-L23 | 0.141
COR-L 105 | 0.619
LOU-NH91 | 0.223
ChaGo-K-1 | 0.511
A549 | 0.296
SW 900 | 0.208
NCI-H1648 | 0.374
NCI-H2009 | 0.18
NCI-H661 | 0.244
SW 1573 | 0.115
NCI-H2023 | 0.0889
SK-MES-1 | 0.176

same assay, conditions: first compound 4 µM

Cell Line | relative viability
NCI-H522 | 0.428
NCI-H727 | 0.405
NCI-H1650 | 0.129
NCI-H1993 | 0.367
SK-LU-1 | 0.328
NCI-H838 | 0.272
LCLC-103H | 0.293
NCI-H520 | 0.192
NCI-H2126 | 0.306
EMC-BAC-2 | 0.282
NCI-H2085 | 0.337
HCC-366 | 0.0425
NCI-H1666 | 0.393
NCI-H596 | 0.616
NCI-H1395 | 0.402
NCI-H2087 | 0.0967

Cell Line | relative viability
NCI-H2342 | 0.5
LK-2 | 0.196
H3255 | 0.3
COR-L23 | 0.146
COR-L 105 | 0.318
LOU-NH91 | 0.243
ChaGo-K-1 | 0.198
A549 | 0.1
SW 900 | 0.213
NCI-H1648 | 0.272
NCI-H2009 | 0.134
NCI-H661 | 0.233
SW 1573 | 0.0911
NCI-H2023 | 0.0963
SK-MES-1 | 0.205
